One compound from patent publication EP0427405A1 (priority 1989, dated 1991) can be followed below.

Experiment [1] relates to Phaffia rhodozyma ENZA-M10. The class given is cell-based.
In experiment [2] the test system is Phaffia rhodozyma ENZA-A169. The class given is cell-based.

Molecules are shown by their SMILES.

For the compound `CSC` [DMS, dimethylsulphide], the “kill curve, shape” value in experiment [1] is listed as “definite "bump"”. Also, in experiment [2], the “kill curve, kinetics of death” value is on record as “follows 1st order kinetics” and the “kill curve, speed of killing” value is “killed much more quickly than E1”.
